Measured values published in patent US9714234B2, “Carbazole carboxamide compounds” (Bristol-Myers Squibb Company, priority 2013, dated 2017).

Key:
[1] = tested on: CD69 expression on B cells in human whole blood; assay: Whole Blood Assays of BCR-Stimulated CD69 Expression on B Cells; format: cell-based; conditions: anti-human IgM + IL-4 stimulation, 18 h at 37° C.
human recombinant Btk = human recombinant Btk (Homo sapiens (Human), UniProt Q06187); assay: Human Recombinant Btk Enzyme Assay; format: biochemical; conditions: human recombinant Btk 1 nM, ATP 20 μM
human recombinant Btk, sequence (Q06187 whole entry): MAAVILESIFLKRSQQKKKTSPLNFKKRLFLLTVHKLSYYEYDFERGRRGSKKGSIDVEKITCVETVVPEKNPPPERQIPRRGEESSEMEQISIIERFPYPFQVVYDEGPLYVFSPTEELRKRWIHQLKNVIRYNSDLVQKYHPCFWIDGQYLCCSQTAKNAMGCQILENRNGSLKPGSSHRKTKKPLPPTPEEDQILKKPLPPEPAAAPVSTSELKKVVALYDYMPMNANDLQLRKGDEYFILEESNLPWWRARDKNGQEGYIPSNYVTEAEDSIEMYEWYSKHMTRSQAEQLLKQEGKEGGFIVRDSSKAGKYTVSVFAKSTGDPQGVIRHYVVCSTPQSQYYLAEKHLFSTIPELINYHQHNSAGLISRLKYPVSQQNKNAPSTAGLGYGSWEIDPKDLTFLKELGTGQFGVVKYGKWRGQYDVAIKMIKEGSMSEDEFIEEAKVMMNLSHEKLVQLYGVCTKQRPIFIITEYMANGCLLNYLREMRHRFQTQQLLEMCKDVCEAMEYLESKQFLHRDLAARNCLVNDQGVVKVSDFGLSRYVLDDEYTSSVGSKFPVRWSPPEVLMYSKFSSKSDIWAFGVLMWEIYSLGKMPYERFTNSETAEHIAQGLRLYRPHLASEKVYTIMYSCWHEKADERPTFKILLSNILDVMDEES

Jak2 tyrosine kinase = Jak2 tyrosine kinase (Homo sapiens (Human), UniProt O60674); assay: Jak2 Tyrosine Kinase Assay; format: biochemical; conditions: for IC50: Jak2 1 nM, ATP 30 μM; for Ratio of Jak2/Btk IC50 values: selectivity for Btk over Jak2, larger value = more selective for Btk
Jak2 tyrosine kinase, sequence (O60674 whole entry): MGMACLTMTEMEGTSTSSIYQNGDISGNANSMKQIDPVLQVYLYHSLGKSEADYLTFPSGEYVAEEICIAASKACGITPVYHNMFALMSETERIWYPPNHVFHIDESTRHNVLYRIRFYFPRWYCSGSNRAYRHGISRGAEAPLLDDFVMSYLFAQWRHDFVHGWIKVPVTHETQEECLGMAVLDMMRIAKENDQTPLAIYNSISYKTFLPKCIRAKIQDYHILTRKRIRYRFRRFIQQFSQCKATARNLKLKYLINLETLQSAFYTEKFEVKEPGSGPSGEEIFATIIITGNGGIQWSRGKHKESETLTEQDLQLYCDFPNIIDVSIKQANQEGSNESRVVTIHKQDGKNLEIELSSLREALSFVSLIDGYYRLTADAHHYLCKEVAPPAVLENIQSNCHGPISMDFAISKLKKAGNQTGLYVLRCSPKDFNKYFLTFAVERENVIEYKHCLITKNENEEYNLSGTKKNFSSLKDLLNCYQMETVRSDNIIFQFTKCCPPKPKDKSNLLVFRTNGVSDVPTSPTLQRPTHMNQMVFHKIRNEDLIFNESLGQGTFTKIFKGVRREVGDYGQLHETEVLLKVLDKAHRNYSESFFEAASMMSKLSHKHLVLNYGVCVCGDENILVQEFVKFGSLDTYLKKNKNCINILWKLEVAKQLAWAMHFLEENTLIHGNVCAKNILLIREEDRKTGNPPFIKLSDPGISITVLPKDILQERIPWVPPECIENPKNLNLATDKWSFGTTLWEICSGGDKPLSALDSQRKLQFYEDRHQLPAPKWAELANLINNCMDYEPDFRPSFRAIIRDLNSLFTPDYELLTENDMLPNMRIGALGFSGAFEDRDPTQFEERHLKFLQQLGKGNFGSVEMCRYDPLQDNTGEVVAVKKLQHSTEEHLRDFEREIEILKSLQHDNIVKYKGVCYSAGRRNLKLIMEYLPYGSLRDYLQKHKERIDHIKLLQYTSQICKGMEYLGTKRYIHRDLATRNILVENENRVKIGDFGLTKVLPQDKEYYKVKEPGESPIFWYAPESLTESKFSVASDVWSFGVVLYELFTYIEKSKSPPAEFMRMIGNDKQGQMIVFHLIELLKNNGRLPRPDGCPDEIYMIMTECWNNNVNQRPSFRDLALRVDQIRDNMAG

| Molecule | IC50 ([1]; Homo sapiens, B-cell, 18 h) | IC50 (human recombinant Btk) | IC50 (Jak2 tyrosine kinase) | Ratio of Jak2/Btk IC50 values (Jak2 tyrosine kinase) | IC50 ([1]; B-cell) | IC50 [1] |
| --- | --- | --- | --- | --- | --- | --- |
| Cc1c(-c2ccc(C(N)=O)c3[nH]c4cc(C(C)(C)O)ccc4c23)cccc1-n1c(=O)[nH]c2c(F)cccc2c1=O (single isomer, unassigned) [Example 1, 4-(3-(8-Fluoro-2,4-dioxo-1,2-dihydroquinazolin-3(4H)-yl)-2-methylphenyl)-7-(2-hydroxypropan-2-yl)-9H-carbazole-1-carboxamide] | 140 nM | 1.5 nM | 1200 nM | 800 | – | – |
| COc1ccc2cc(=O)n(-c3cccc(-c4ccc(C(N)=O)c5[nH]c6cc(C(C)(C)O)ccc6c45)c3C)c(=O)n2c1 [Example 10, 7-(2-Hydroxypropan-2-yl)-4-(3-(7-methoxy-1,3-dioxo-1H-pyrido[1,2-c]pyrimidin-2(3H)-yl)-2-methylphenyl)-9H-carbazole-1-carboxamide] | – | 1.4 nM | 1100 nM | 790 | 120 nM | – |
| Cc1c(-c2ccc(C(N)=O)c3[nH]c4cc(C(C)(C)O)ccc4c23)cccc1-n1c(=O)cc2c(Cl)cccn2c1=O [Example 13, 4-(3-(5-Chloro-1,3-dioxo-1H-pyrido[1,2-c]pyrimidin-2(3H)-yl)-2-methylphenyl)-7-(2-hydroxypropan-2-yl)-9H-carbazole-1-carboxamide] | – | 0.94 nM | 1300 nM | 1400 | – | 120 nM |
| Cc1c(-c2ccc(C(N)=O)c3[nH]c4cc(C(C)(C)O)ccc4c23)cccc1-n1c(=O)c2cc(F)ccc2n(C)c1=O [Example 8, 4-(3-(6-Fluoro-1-methyl-2,4-dioxo-1,2-dihydroquinazolin-3(4H)-yl)-2-methylphenyl)-7-(2-hydroxypropan-2-yl)-9H-carbazole-1-carboxamide] | – | 5.8 nM | 2200 nM | 380 | 160 nM | – |
| Cc1c(-c2ccc(C(N)=O)c3[nH]c4cc(C(C)(C)O)ccc4c23)cccc1-n1c(=O)cc2c(F)cccn2c1=O [Example 21, 4-(3-(5-Fluoro-1,3-dioxo-1H-pyrido[1,2-c]pyrimidin-2(3H)-yl)-2-methylphenyl)-7-(2-hydroxypropan-2-yl)-9H-carbazole-1-carboxamide] | 75 nM | 0.93 nM | 960 nM | 1000 | – | – |
| Cc1c(-c2ccc(C(N)=O)c3[nH]c4cc(C(C)(C)O)cc(C)c4c23)cccc1-n1c(=O)c2cccc(F)c2n(C)c1=O (single isomer, unassigned) [Example 25] | – | 0.7 nM | 4600 nM | 6600 | 69 nM | – |
| Cn1c(=O)n(-c2cccc(-c3ccc(C(N)=O)c4[nH]c5cc(C(C)(C)O)ccc5c34)c2Cl)c(=O)c2cccc(F)c21 [Example 5, 4-(2-Chloro-3-(8-fluoro-1-methyl-2,4-dioxo-1,2-dihydroquinazolin-3(4H)-yl)phenyl)-7-(2-hydroxypropan-2-yl)-9H-carbazole-1-carboxamide] | – | 0.9 nM | 1200 nM | 1300 | 180 nM | – |
| [2H]C([2H])([2H])n1c(=O)n(-c2cccc(-c3ccc(C(N)=O)c4[nH]c5cc(C(C)(C)O)cc(C)c5c34)c2C)c(=O)c2cccc(F)c21 (atropisomer, axis not shown) [Example 27, 4-(3-(S)-(8-Fluoro-1-methyl(d3)-2,4-dioxo-1,2-dihydroquinazolin-3(4H)-yl)-2-methylphenyl)-7-(2-hydroxypropan-2-yl)-5-methyl-9H-carbazole-1-carboxamide] | – | 1.2 nM | > 2000 nM | >1700 | 98 nM | – |
| Cc1c(-c2ccc(C(N)=O)c3[nH]c4c(F)c(C(C)(C)O)ccc4c23)cccc1-n1c(=O)c2cccc(F)c2n(C)c1=O [Example 33, 8-fluoro-4-(3-(8-fluoro-1-methyl-2,4-dioxo-1,2-dihydroquinazolin-3(4H)-yl)-2-methylphenyl)-7-(2-hydroxypropan-2-yl)-9H-carbazole-1-carboxamide] | – | 0.4 nM | 226 nM | 540 | 250 nM | – |
| COCc1ccc2c(c1)[nH]c1c(C(N)=O)ccc(-c3cccc(-n4c(=O)cc5c(Cl)cccn5c4=O)c3C)c12 [Example 17, 4-(3-(5-Chloro-1,3-dioxo-1H-pyrido[1,2-c]pyrimidin-2(3H)-yl)-2-methylphenyl)-7-(methoxymethyl)-9H-carbazole-1-carboxamide] | – | 1.7 nM | 1900 nM | 1100 | 110 nM | – |
| 4-(3-(S)-(8-Fluoro-1-methyl-2,4-dioxo-1,2-dihydroquinazolin-3(4H)-yl)-2-methylphenyl)-7-(2-hydroxypropan-2-yl)-5-methyl-9H-carbazole-1-carboxamide [Example 24] | – | 0.59 nM | > 2000 nM | >3400 | – | 160 nM |
